For test [1], the system named is Rhizoctonia solani. Put plainly: Microtest (micro titer plate): activity against Rhizoctonia solani. In kind it is cell-based. The following applies: 7 days after inoculation. An excerpt: (§1) The active compounds were formulated separately as a stock solution having a concentration of 10000 ppm in dimethyl sulfoxide.
(§2) Epoxiconazole was used as commercial finished formulation and diluted with water to the stated concentration of the active compound.
B) 1. Activity against Rhizoctonia solani
(§3) The stock solutions were mixed according to the ratio, pipetted onto a micro titer plate (MTP) and diluted with water to the stated concentrations. A spore suspension of Septoria tritici in an aqueous biomalt solution was then added. The plates were placed in a water vapor-saturated chamber at a temperature of 18° C. Using an absorption photometer, the MTPs were measured at 405 nm 7 days after the inoculation.
(§4) The measured parameters were compared to the growth of the active compound-free control variant (100%) and the fungus-free and active compound-free blank value to determine the relative growth in % of the pathogens in the respective active compounds. These percentages were converted into efficacies. An efficacy of 0 means that the growth level of the pathogens corresponds to that of the untreated control; an efficacy of 100 means that the pathogens were not growing.
(§5) The expected efficacies of active compound mixtures were determined using Colby's formula [R. S. Colby, “Calculating synergistic and antagonistic responses of herbicide combinations”, Weeds 15, 20-22 (1967)] and compared with the observed efficacies.

The test system of test [2] is Puccinia recondita. Put plainly: Greenhouse: preventative control of brown rust on wheat. In kind it is in vivo. The following applies: 0.25 ppm, wheat seedlings sprayed 1 day before inoculation, % of untreated control. How it is done:
The spray solutions were prepared in several steps:
The stock solution were prepared: a mixture of acetone and/or dimethylsulfoxide and the wetting agent/emulsifier Wettol®, which is based on ethoxylated alkylphenoles, in a relation (volume) solvent-emulsifier of 99 to 1 was added to 25 mg of the compound to give a total of 10 ml.
Water was then added to total volume of 100 ml.
This stock solution was diluted with the described solvent-emulsifier-water mixture to the given concentration.
The product epoxiconazole was used as commercial finished formulation and diluted with water to the stated concentration of the active compound.
Preventative Control of Brown Rust on Wheat Caused by Puccinia recondite
The first two developed leaves of pot-grown wheat seedling were sprayed to run-off with an aqueous suspension, containing the concentration of active ingredient or their mixture as described below. The next day the plants were inoculated with spores of Puccinia recondita. To ensure the success the artificial inoculation, the plants were transferred to a humid chamber without light and a relative humidity of 95 to 99% and 20 to 22 °C. for 24 h. Then the trial plants were cultivated for 6 days in a greenhouse chamber at 22-26° C. and a relative humidity between 65 and 70%. The extent of fungal attack on the leaves was visually assessed as % diseased leaf area. […]
as §5
The visually determined percentages of infected leaf areas were converted into efficacies in % of the untreated control.
The efficacy (E) is calculated as follows using Abbot's formula: […]
The expected efficacies of active compound combinations were determined using Colby's formula (Colby, S. R. “Calculating synergistic and antagonistic responses of herbicide combinations”, Weeds, 15, pp. 20-22, 1967) and compared with the observed efficacies. […]

Test [3] relates to Septoria tritici. Put plainly: Microtest (micro titer plate): activity against Septoria tritici. The following applies: 7 days after inoculation. In kind it is cell-based.
From the text: as §1, §2
B) 2. Activity against Septoria tritici
as §3, §4, §5

The structures appear in SMILES notation.

These results are taken from patent publication US20100331181A1, “Method for Protecting Cereals From Being Infected By Fungi” (BASF SE, priority 2008, published 2010).

Turning to `Fc1ccc([C@]2(Cn3cncn3)O[C@H]2c2ccccc2Cl)cc1` (racemic) [Epoxiconazole, epoxiconazole], in test [1] (0.004 ppm), the Observed efficacy was 0%.

As for `Cn1cc(C(=O)Nc2ccc(F)cc2-c2ccc(Cl)c(Cl)c2)c(C(F)F)n1` [Bixafen, N-(3′,4′-dichloro-5-fluorobiphenyl-2-yl)-3-(difluoromethyl)-1-methylpyrazole-4-carboxamide], the Observed efficacy in test [2] worked out at 0%; in test [1] (0.001 ppm), 0%; in test [1] (0.004 ppm), 7%.

Consider `Cc1nn(C)c(F)c1C(=O)Nc1ccccc1C(C)CC(C)C` (stereo not drawn) [Compound (II), N-[2-(1,3-dimethylbutyl)-phenyl]-1,3-dimethyl-5-fluor-1H-pyrazole-4-carboxamide], for which the Observed efficacy in test [3] (0.004 ppm) stood at 0%.

On to `CC1(C)CCC(Cc2ccc(Cl)cc2)C1(O)Cn1cncn1` (stereo not drawn) [Metconazole, metconazole], for which the Observed efficacy in test [2] is reported as 33%; in test [1] (0.004 ppm), 26%; in test [1] (0.016 ppm), 62%; in test [3] (0.016 ppm), 19%.

As for `OC(Cc1ccccc1Cl)(Cn1nc[nH]c1=S)C1(Cl)CC1` (stereo not drawn) [Prothioconazole], the figures for the Observed efficacy in test [2], in test [1] (0.016 ppm) and in test [3] (0.016 ppm) were 0%, 11% and 5%, respectively.
